{"source": "patent US20040014637A1", "about": "“Mechanism for the inactivation of insulin receptor and uses in the treatment of type II diabetes” (McGill University, priority 1998, published 2004)", "key": {"insulin receptor": {"molecular_target": "T1, insulin receptor (Rattus norvegicus, UniProt P15127)", "T1 construct": "from tissue; host or cells: rat liver; endosome (EN) and plasma membrane (PM) fractions", "T1 sequence (P15127 27-759 limits assumed)": "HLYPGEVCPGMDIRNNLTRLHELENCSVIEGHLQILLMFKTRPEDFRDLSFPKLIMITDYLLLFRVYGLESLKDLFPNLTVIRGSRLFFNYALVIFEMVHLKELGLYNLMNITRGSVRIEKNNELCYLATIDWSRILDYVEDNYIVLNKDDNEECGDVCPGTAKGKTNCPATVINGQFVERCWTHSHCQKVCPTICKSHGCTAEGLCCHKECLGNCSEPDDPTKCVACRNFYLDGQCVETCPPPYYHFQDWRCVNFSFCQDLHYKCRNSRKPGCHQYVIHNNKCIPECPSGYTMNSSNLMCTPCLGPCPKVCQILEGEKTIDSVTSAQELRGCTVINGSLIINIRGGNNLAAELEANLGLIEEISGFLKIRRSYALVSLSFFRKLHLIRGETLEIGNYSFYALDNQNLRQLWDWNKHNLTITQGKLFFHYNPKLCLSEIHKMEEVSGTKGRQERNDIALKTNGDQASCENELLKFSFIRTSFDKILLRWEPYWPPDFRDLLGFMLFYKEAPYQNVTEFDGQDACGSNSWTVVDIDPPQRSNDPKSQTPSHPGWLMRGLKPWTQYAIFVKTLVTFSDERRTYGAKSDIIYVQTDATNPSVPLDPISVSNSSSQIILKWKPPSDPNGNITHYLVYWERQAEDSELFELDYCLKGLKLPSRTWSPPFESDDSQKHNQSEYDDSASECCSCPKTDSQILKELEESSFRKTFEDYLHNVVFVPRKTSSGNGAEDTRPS", "T1 sequence (P15127 764-1383 limits assumed)": "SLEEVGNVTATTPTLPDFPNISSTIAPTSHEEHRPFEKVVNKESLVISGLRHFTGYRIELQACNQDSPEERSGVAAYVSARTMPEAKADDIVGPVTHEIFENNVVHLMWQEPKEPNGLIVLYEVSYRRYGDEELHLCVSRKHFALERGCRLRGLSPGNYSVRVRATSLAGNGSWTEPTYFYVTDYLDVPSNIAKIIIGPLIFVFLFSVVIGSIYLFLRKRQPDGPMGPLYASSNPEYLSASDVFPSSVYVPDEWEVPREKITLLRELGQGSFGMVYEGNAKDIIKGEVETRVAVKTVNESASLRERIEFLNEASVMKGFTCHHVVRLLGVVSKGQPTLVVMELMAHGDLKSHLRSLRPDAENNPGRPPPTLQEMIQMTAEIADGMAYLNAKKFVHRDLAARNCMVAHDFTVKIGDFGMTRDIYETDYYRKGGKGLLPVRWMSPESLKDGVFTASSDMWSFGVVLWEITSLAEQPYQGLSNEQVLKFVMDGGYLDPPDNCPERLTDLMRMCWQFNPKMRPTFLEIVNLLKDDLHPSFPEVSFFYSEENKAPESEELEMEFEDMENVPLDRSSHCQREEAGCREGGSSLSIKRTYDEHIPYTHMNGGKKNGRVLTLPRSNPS", "experiment": "125I-insulin binding after preincubating endosomes (ENs containing IR) with nucleotides", "settings": "Table 2; addition 10 mM, 37° C. 15 min; normalized to endosomes without nucleotide", "description": "Rats were anaesthetized with ether and were injected via jugular vein with a dose (per 100 g body weight) of insulin (1.5 μg), or bpV(phen) (0.6 μmol), dissolved in 0.2 ml. phosphate buffered saline (pH 7.4) −0.1% BSA. […] Livers were rapidly excised, placed in ice-cold homogenizing buffer (50 mM HEPES (pH 7.4), 0.25 M sucrose, 1 mM PMSF, 1 MM MgCl2, 1 mM benzamidine) and minced before homogenization. […] These subcellular fractions have been characterized in detail both morphologically and biochemically.\nAfter 10 min at room temperature, the reactions was terminated by spotting 50 μl aliquots on Whatman 3 MM filters.\nIn the present study we wished to assess whether other processes might be involved in reducing the association of intraendosomal insulin with its receptor. We examined the effect of incubating intact ENs containing IR with increasing concentrations of ATP on subsequently measured insulin and hGH binding in both solubilized and WGA-purified receptors."}, "[1]": {"system": "intraendosomal insulin degradation", "settings": "cited from earlier work"}, "[2]": {"settings": "treatment of Type II diabetic patients; cited from earlier work"}, "[3]": {"molecular_target": "T2, insulin receptor kinase (IRK) (Rattus norvegicus, UniProt P15127)", "T2 construct": "from tissue; host or cells: rat liver; endosome (EN) and plasma membrane (PM) fractions", "T2 sequence (P15127 27-759 limits assumed)": "as the sequence (P15127 27-759 limits assumed) above", "T2 sequence (P15127 764-1383 limits assumed)": "as the sequence (P15127 764-1383 limits assumed) above", "experiment": "Insulin receptor kinase (IRK) exogenous tyrosine kinase activity, Poly (Glu:Tyr) (4:1) substrate, WGA-purified IRK from preincubated cell fractions", "type": "biochemical"}, "[4]": {"molecular_target": "T3, insulin receptor kinase (IRK) β-subunit (Rattus norvegicus, UniProt P15127)", "T3 construct": "from tissue; host or cells: rat liver; endosome (EN) and plasma membrane (PM) fractions", "T3 sequence (P15127 27-759 limits assumed)": "as the sequence (P15127 27-759 limits assumed) above", "T3 sequence (P15127 764-1383 limits assumed)": "as the sequence (P15127 764-1383 limits assumed) above", "experiment": "IRK β-subunit phosphotyrosine content (αPY immunoblot of WGA eluates)", "type": "biochemical", "description": "The phosphotyrosine content of endosomal IRs (ENs containing IR) was determined by subjecting lectin column (WGA-Sepharose™)-purified preparations to SDS-PAGE and immunoblotting with α960 and αPY (Faure et al. (1992) J. Biol. Chem. 267, 11215-11221). […] FIG. 1B illustrates the effect of ATP on β subunit phosphotyrosine content. WGA eluates (5 μg protein) were subjected to SDS-PAGE in 7.5% gels followed by transfer of proteins to Immobilon-P membranes. Membranes were probed with αPY or α960 antibodies followed by incubation with ^125I-GAR as second antibody and exposed for autoradiography."}}, "data": [{"compound": "Nc1ncnc2c1ncn2[C@@H]1O[C@H](COP(=O)(O)OP(=O)(O)NP(=O)(O)O)[C@@H](O)[C@H]1O", "note": "[AMP—P—N—P]", "values": [{"measurement": "125I-Insulin specific binding (%), Solubilized endosomes", "setting": "insulin receptor", "result": "112.2 ± 2.8", "unit": "%"}, {"measurement": "125I-Insulin specific binding (%), WGA-purified endosomes", "setting": "insulin receptor", "result": "99.1 ± 1.0", "unit": "%"}]}, {"compound": "CCN(CC)CCCC(C)Nc1ccnc2cc(Cl)ccc12", "note": "(stereo not shown) [chloroquine]", "values": [{"measurement": "Intraendosomal insulin degradation", "setting": "[1]", "result": "inhibits intraendosomal insulin degradation"}, {"measurement": "Glucose metabolism in Type II diabetic patients", "setting": "[2]", "result": "improve glucose metabolism"}]}, {"compound": "O.O.O.OO.OO.[K+].[OH-].[V].c1cnc2c(c1)ccc1cccnc12", "note": "[bpV(phen)]", "values": [{"measurement": "Effect on suppression of IRK activity by 5 mM ATP (FIG. 6A)", "setting": "[3]; coincubation of ENs with 0.1 mM bpV(phen)", "result": "did not prevent"}, {"measurement": "IRK activity of ENs isolated from pretreated rats", "setting": "[3]; rats given bpV(phen) 0.6 μmol/100 g body weight i.v., ENs at 15 min", "result": "augmented IRK activity"}, {"measurement": "Effect on reduction in β-subunit tyrosine phosphorylation by 5 mM ATP (FIG. 6B)", "setting": "[4]; bpV(phen) 0.1 mM in vitro or rats pretreated", "result": "did not influence the reduction"}]}, {"compound": "CO/C1=C\\C(C)=C\\[C@@H](C)[C@@H](O)[C@@H](C)C/C(C)=C/C=C/[C@H](OC)[C@@H]([C@@H](C)[C@@H](O)[C@H](C)[C@@]2(O)C[C@@H](O)[C@H](C)[C@@H](C(C)C)O2)OC1=O", "note": "[Bafilomycin A1]", "values": [{"measurement": "Effect on ability of ATP to reduce IRK activation (FIG. 4A)", "setting": "[3]; 1 μM Bafilomycin A1 preincubation 30 min 37° C., then 5 and 10 mM ATP 15 min", "result": "marked attenuation"}, {"measurement": "Effect on inhibition of IRK tyrosine phosphorylation and activity by 5 mM ATP", "setting": "[3]; ENs containing IR incubated with 5 mM ATP", "result": "completely reversed"}, {"measurement": "IRK activity in ENs after preincubation, before ATP additions", "setting": "[3]; preincubation with 1 μM Bafilomycin A1, 30 min 37° C. (without: 1.3)", "result": "1.4 pmol/10 min/10 fmol insulin binding"}, {"measurement": "Level of IRK tyrosine phosphorylation at 5 mM ATP (FIG. 4B)", "setting": "[4]; in the presence of Bafilomycin (1 μM), 5 mM ATP", "result": "comparable to that observed at 1 mM ATP"}]}, {"compound": "Nc1ncnc2c1ncn2[C@@H]1O[C@H](COP(=O)(O)OP(=O)(O)O)[C@@H](O)[C@H]1O", "note": "[ADP]", "values": [{"measurement": "125I-Insulin specific binding (%), Solubilized endosomes", "setting": "insulin receptor", "result": "96.3 ± 6.4", "unit": "%"}, {"measurement": "125I-Insulin specific binding (%), WGA-purified endosomes", "setting": "insulin receptor", "result": "82.7 ± 5.2", "unit": "%"}]}, {"compound": "O=P([O-])([O-])OP(=O)([O-])[O-].[Na+].[Na+].[Na+].[Na+]", "note": "[NaPiPi, sodium pyrophosphate]", "values": [{"measurement": "125I-Insulin specific binding (%), WGA-purified endosomes", "setting": "insulin receptor", "result": "97.8 ± 2.3", "unit": "%"}]}, {"compound": "Nc1ncnc2c1ncn2[C@@H]1O[C@H](CO)[C@@H](O)[C@H]1O", "note": "[Adenosine, adenosine]", "values": [{"measurement": "125I-Insulin specific binding (%), Solubilized endosomes", "setting": "insulin receptor", "result": "94.5 ± 4.1", "unit": "%"}, {"measurement": "125I-Insulin specific binding (%), WGA-purified endosomes", "setting": "insulin receptor", "result": "105.9 ± 3.3", "unit": "%"}]}, {"compound": "Nc1ncnc2c1ncn2[C@@H]1O[C@H](COP(=O)(O)OP(=O)(O)CP(=O)(O)O)[C@@H](O)[C@H]1O", "note": "[AMP—P—C—P]", "values": [{"measurement": "Effect on level of IRK activity (FIG. 2)", "setting": "[3]; 5 mM AMP-P-C-P, in the presence or absence of 1 mM ATP", "result": "no effect"}, {"measurement": "125I-Insulin specific binding (%), Solubilized endosomes", "setting": "insulin receptor", "result": "109.1 ± 0.9", "unit": "%"}, {"measurement": "125I-Insulin specific binding (%), WGA-purified endosomes", "setting": "insulin receptor", "result": "95.1 ± 2.0", "unit": "%"}]}]}
